The values below come from patent publication US10954287B2, “Ras binding peptides and methods of use” (Ra Pharmaceuticals, Inc., priority 2016, dated 2021).

Test [1] deals with human lung cancer cell line H358. Nature of the test: Cell permeability by monitoring intracellular fluorescence. Conditions: H358 cells treated 3.5 hours, serum-free media; compared to negative control and scrambled R4007. Type of test: cell-based. On the procedure: Cell permeability of R4007 (a TAMRA-labeled R4000 derivative) was determined in the human lung cancer cell line H358 (ATCC, Manassas, Va.). Cells were maintained in RPMI-1640 with 10% FBS at 37° C., 95% relative humidity, 5% CO2. For experiments, cells were seeded at 50,000 cells/well in growth media on 96-well glass bottom plates (Greiner, Monroe, N.C.) and incubated 24 hours prior to treatment. Media was removed from cells and replaced with indicated treatment solutions prepared in serum-free media (0.1% DMSO final). Cells were treated for 3.5 hours, then washed 3 times with PBS, fixed with 4% formaldehyde in PBS for 5 minutes at room temperature, and washed 3 times with PBS. Cell nuclei were stained with 1 μg/ml DAPI nuclear stain for 5 minutes at room temperature. Images were captured using a Zeiss Axio Observer inverted microscope with 63× oil objective with excitation 365 nm/emission 445 for DAPI and excitation 565 nm/emission 620 for TAMRA. TAMRA signal was much stronger in cells treated with R4007 as compared to negative control and cells treated with scrambled R4007.

The test system of test [2] is GMPPNP-loaded H-Ras or GTP-loaded K-Ras. Nature of the test: Fluorescence polarization competition assay with TAMRA-labeled probe R4007. Format: binding, human. Conditions: 120 nM Ras, 30 nM probe R4007, 60 minutes at room temperature; read-out: Probe displacement (nM IC50). In outline: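 120 nM GMPPNP-loaded H-Ras or GTP-loaded K-Ras was preincubated with 30 nM TAMRA-labeled R4007 probe for 20 min at room temperature in Tris pH 7.5 buffer with MgCl2, EDTA and Triton X-100. Serially diluted competitor was then added for 60 min. Polarization was read at 535/595 nm, with Ki from a one-site Ki fit and IC50 from probe displacement.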

Turning to `CCC[C@H](NC(C)=O)C(=O)N[C@H]1CSCc2cccc(c2)CSC[C@@H](C(=O)N[C@@H](Cc2cn(CCCNC(=O)c3ccc(-c4c5ccc(=[N+](C)C)cc-5oc5cc(N(C)C)ccc45)c(C(=O)[O-])c3)nn2)C(N)=O)NC(=O)CN(C)C(=O)[C@H](Cc2ccc(F)cc2)N(C)C(=O)[C@H](Cc2ccc(O)cc2)NC(=O)[C@H](Cc2c[nH]c3ncccc23)NC(=O)[C@H](c2ccccc2)NC(=O)[C@H](C)N(C)C(=O)[C@H](Cc2cnc[nH]2)NC(=O)[C@H](CCCCN)NC(=O)[C@H](C(C)(C)C)NC(=O)[C@H](Cc2ccc(O)cc2)NC1=O` [Compound R4007], in test [1], the “intracellular TAMRA signal” value is given as “much stronger”. As to `CCC[C@H](NC(C)=O)C(=O)N[C@H]1CSCc2cccc(c2)CSC[C@@H](C(N)=O)NC(=O)CN(C)C(=O)[C@H](Cc2ccc(F)cc2)N(C)C(=O)[C@H](Cc2ccc(O)cc2)NC(=O)[C@H](Cc2c[nH]c3ncccc23)NC(=O)[C@H](c2ccccc2)NC(=O)[C@H](C)N(C)C(=O)[C@H](C)NC(=O)[C@H](CCCCN)NC(=O)[C@H](C(C)(C)C)NC(=O)[C@H](Cc2ccc(O)cc2)NC1=O` (relative stereo) [Compound R4126, ACE-NVA-CYS*-TYR-TBG-LYS-ALA-NMA-PHG-7AW-TYR-MFF-SAR-CYS*-NH2], the 50% inhibitory concentration (IC50) in test [2] worked out at 127 nM. In the case of `CCC[C@H](NC(C)=O)C(=O)N[C@H]1CSCc2cccc(c2)CSC[C@@H](C(=O)N[C@H](CO)C(=O)N[C@@H](CCCCN)C(=O)NCC(=O)N[C@@H](CS)C(=O)N[C@H](C(=O)N[C@H](C(=O)N[C@@H](CCSC)C(=O)O)[C@@H](C)CC)C(C)C)NC(=O)CN(C)C(=O)[C@H](Cc2ccc(F)cc2)N(C)C(=O)[C@H](Cc2ccc(O)cc2)NC(=O)[C@H](Cc2c[nH]c3ncccc23)NC(=O)[C@H](c2ccccc2)NC(=O)[C@H](C)N(C)C(=O)[C@H](Cc2c[nH]cn2)NC(=O)[C@H](CCCCN)NC(=O)[C@H](C(C)(C)C)NC(=O)[C@H](Cc2ccc(O)cc2)NC1=O` (relative stereo) [Compound R4105, ACE-NVA-CYS*-TYR-TBG-LYS-HIS-NMA-PHG-7AW-TYR-MFF-SAR-CYS*-DSER-LYS-GLY-CYS-VAL-ILE-MET], the IC50 in test [2] came out at 3.31 nM. Consider `CCC[C@H](NC(C)=O)C(=O)N[C@H]1CSCc2cccc(c2)CSC[C@@H](C(N)=O)NC(=O)CN(C)C(=O)[C@H](Cc2ccc(F)cc2)N(C)C(=O)[C@H](Cc2ccc(O)cc2)NC(=O)[C@H](Cc2c[nH]c3ncccc23)NC(=O)[C@@H](c2ccccc2)NC(=O)[C@H](C)N(C)C(=O)[C@H](C)NC(=O)[C@H](CCCCN)NC(=O)[C@H](C(C)(C)C)NC(=O)[C@H](Cc2ccc(O)cc2)NC1=O` (relative stereo) [Compound R4153, ACE-NVA-CYS*-TYR-TBG-LYS-ALA-NMA-DPHG-7AW-TYR-MFF-SAR-CYS*-NH2], for which the IC50 in test [2] is 36400 nM. For the compound `C=CC(=O)NCc1cn(C[C@H](NC(=O)[C@H](C)NC(=O)[C@@H](NC(=O)[C@H](Cc2ccc(O)cc2)NC(=O)[C@H](CO)NC(=O)[C@H](CCC)NC(C)=O)C(C)(C)C)C(=O)N(C)[C@@H](C)C(=O)NC(C(=O)N[C@@H](Cc2c[nH]c3ncccc23)C(=O)N[C@@H](Cc2ccc(O)cc2)C(=O)N(C)[C@@H](Cc2ccc(F)cc2)C(=O)N(C)CC(=O)N[C@@H](CO)C(N)=O)c2ccccc2)nn1` (stereo partly shown) [Compound R4005, ACE-NVA-SER-TYR-TBG-ALA-DAPTZAC1-NMA-RPHG-7AW-TYR-MFF-SAR-SER-NH2], in test [2], the IC50 came to 2070 nM. Consider `CCC[C@H](NC(C)=O)C(=O)N[C@H]1CSCc2cccc(c2)CSC[C@@H](C(N)=O)NC(=O)[C@H](CO)N(C)C(=O)[C@H](Cc2ccc(F)cc2)N(C)C(=O)[C@H](Cc2ccc(O)cc2)NC(=O)[C@H](Cc2c[nH]c3ncccc23)NC(=O)[C@H](c2ccccc2)NC(=O)[C@H](C)N(C)C(=O)[C@H](Cc2c[nH]cn2)NC(=O)[C@H](CCCCN)NC(=O)[C@H](C(C)(C)C)NC(=O)[C@H](Cc2ccc(O)cc2)NC1=O` (relative stereo) [Compound R4118, ACE-NVA-CYS*-TYR-TBG-LYS-HIS-NMA-PHG-7AW-TYR-MFF-NMS-CYS*-NH2], for which the IC50 in test [2] turned out to be 51.5 nM. Take `CCC[C@H](NC(C)=O)C(=O)N[C@H]1CSCc2cccc(c2)CSC[C@@H](C(=O)O)NC(=O)CN(C)C(=O)[C@H](Cc2ccc(F)cc2)N(C)C(=O)[C@H](Cc2ccc(O)cc2)NC(=O)[C@H](Cc2c[nH]c3ncccc23)NC(=O)[C@H](c2ccccc2)NC(=O)[C@H](C)N(C)C(=O)[C@H](Cc2c[nH]cn2)NC(=O)[C@H](CCCCNC(CC(C)C)=C2C(=O)CC(C)(C)CC2=O)NC(=O)[C@H](C(C)(C)C)NC(=O)[C@H](Cc2ccc(O)cc2)NC1=O` (relative stereo) [Compound R4135, ACE-NVA-CYS*-TYR-TBG-LYS-(DDE)-HIS-NMA-PHG-7AW-TYR-MFF-SAR-CYS*]: the concentration for half-maximal inhibition (IC50) in test [2] was 364 nM.
